In general, IC50 refers to the concentration at which inhibition is half-maximal. Read a high IC50 as weaker potency in that assay.

From BindingDB's records for patent US20130102619 (2013) come the findings set out here.

This assay has as its target T1, Orexin receptor type 2 (Homo sapiens, UniProt O43614).
T1 sequence (O43614 whole entry): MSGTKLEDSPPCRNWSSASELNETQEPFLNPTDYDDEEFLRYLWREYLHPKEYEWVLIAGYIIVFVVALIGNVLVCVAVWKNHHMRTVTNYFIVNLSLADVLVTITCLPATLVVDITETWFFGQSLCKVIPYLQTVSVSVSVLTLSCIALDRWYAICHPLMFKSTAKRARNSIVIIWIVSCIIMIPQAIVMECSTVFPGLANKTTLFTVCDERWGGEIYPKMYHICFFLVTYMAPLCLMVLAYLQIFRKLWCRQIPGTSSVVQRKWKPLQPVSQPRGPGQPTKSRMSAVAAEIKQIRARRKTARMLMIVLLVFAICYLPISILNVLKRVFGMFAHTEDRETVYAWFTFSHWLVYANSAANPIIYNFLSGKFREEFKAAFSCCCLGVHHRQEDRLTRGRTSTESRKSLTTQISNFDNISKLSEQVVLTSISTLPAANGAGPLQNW
Description: FLIPR Ca2+ Flux Assay. Conditions: 37 °C. The procedure: Chinese hamster ovary (CHO) cells expressing the rat orexin-1 receptor or the human orexin-2 receptor, are grown in Iscove's modified DMEM containing 2 mM L-glutamine, […], 1% hypoxanthine-thymidine supplement, 100 U/ml penicillin, 100 ug/ml streptomycin and 10% heat-inactivated fetal calf serum (FCS). The cells are seeded at 20,000 cells/well into Becton-Dickinson black 384-well clear bottom sterile plates coated with poly-D-lysine. All reagents were from GIBCO-Invitrogen Corp. The seeded plates are incubated overnight at 37° C. and 5% CO2. Ala-6,12 human orexin-A as the agonist is prepared as a 1 mM stock solution in 1% bovine serum albumin (BSA) and diluted in assay buffer (HBSS containing 20 mM HEPES, 0.1% BSA and 2.5 mM probenecid, pH7.4) for use in the assay at a final concentration of 70 pM. Test compounds are prepared as 10 mM stock solution in DMSO, then diluted in 384-well plates, first in DMSO, then assay buffer. On the day of the assay, cells are washed 3 times with 100 ul assay buffer and then incubated for 60 min (37° C., 5% CO2) in 60 ul assay buffer containing 1 uM Fluo-4AM ester, 0.02% pluronic acid, and 1% BSA. The dye loading solution is then aspirated and cells are washed 3 times with 100 ul assay buffer. 30 ul of that same buffer is left in each well. Within the Fluorescent Imaging Plate Reader (FLIPR, Molecular Devices), test compounds are added to the plate in a volume of 25 ul, incubated for 5 min and finally 25 ul of agonist is added. Fluorescence is measured for each well at 1 second intervals for 5 minutes and the height of each fluorescence peak is compared to the height of the fluorescence peak induced by 70 pM Ala-6,12 orexin-A with buffer in place of antagonist.
A general note: Calcium flux is commonly read through the fluorescence of an indicator in the cells.

`C[C@@H]1CC[C@@H](Oc2cc(C#N)ccn2)CN1C(=O)c1ccccc1-n1nccn1` [US20130102619, 1]: the IC50 was 12 nM.

Molecule `C[C@@H]1CC[C@@H](Oc2cc(C#N)ccn2)CN1C(=O)c1ccccc1-c1ncccn1` [US20130102619, 2] came in with an IC50 of 28 nM.

`Cc1nc(-c2ccccc2C(=O)N2C[C@H](Oc3cc(C#N)ccn3)CC[C@H]2C)no1` [US20130102619, 3]: inhibition was half-maximal at 18 nM (IC50). Against the preceding molecule, the IC50 is about 1.6-fold lower.
